Test results published in publication PMC6105845, “Nucleotide Prodrug Containing a Nonproteinogenic Amino Acid To Improve Oral Delivery of a Hepatitis C Virus Treatment” (Antimicrobial Agents and Chemotherapy, 2018).

Legend:
CES1 = molecular target: T1, CES1 (Homo sapiens, UniProt P23141); experiment: Ester cleavage by CES1; type: biochemical
T1 construct: purchased R&D Systems (Minneapolis, MN)
T1 sequence (P23141 18-567): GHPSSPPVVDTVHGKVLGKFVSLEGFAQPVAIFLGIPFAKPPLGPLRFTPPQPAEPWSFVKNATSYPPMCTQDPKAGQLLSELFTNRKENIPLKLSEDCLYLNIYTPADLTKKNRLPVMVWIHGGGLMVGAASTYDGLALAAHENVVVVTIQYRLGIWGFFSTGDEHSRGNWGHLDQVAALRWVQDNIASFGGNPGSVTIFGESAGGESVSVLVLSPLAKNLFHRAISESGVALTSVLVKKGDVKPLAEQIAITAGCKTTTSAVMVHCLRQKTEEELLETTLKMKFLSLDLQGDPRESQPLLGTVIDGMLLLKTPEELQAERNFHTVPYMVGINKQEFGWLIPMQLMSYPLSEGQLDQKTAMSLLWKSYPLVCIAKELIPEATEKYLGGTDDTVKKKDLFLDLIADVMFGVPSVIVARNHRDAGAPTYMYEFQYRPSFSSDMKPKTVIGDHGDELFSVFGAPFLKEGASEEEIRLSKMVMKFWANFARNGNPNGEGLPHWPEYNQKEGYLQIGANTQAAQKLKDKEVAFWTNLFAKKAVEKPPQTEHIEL
Procedure: (§1) Biochemical assays studying prodrug cleavage have been described previously ([8]). In brief, the cleavages of GS2 by CATA, CES1, CES2, and HINT1 were assessed in vitro. The reaction substrates and products were monitored over time by high-performance liquid chromatography (HPLC).

[1] = test system: chimeric HCV replicons GT2b, GT3a, GT4a, GT5a, GT6a; experiment: Chimeric replicons with NS5b of GT2b, GT3a, GT4a, GT5a, GT6a in GT1b background, transiently transfected Huh-1C cells; type: cell-based, hepatitis C virus
CatA = molecular target: T2, CatA (Homo sapiens, UniProt P10619); experiment: Ester cleavage by CatA; type: biochemical; conditions: for Amidate ester cleavage, specific activity: CatA, GS-6620-containing diastereomeric mixture was used
T2 construct: purified from peripheral blood mononuclear cells (PBMCs) according to a previously published procedure; from tissue; host or cells: peripheral blood mononuclear cells (PBMCs)
T2 sequence (P10619 29-480): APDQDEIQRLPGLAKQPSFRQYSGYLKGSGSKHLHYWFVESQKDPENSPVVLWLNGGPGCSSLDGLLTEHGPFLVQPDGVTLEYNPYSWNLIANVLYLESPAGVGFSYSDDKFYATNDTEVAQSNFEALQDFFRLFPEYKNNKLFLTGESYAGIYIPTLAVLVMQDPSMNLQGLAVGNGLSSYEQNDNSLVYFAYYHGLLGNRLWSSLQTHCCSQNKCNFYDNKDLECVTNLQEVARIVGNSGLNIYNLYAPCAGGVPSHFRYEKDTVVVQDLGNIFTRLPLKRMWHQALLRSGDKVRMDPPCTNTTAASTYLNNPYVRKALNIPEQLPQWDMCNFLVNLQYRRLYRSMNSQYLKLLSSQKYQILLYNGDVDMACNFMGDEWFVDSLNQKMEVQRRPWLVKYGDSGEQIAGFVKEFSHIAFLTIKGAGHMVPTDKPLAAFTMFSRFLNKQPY
Procedure: as §1

[2] = Metabolic stability in intestinal S9 fraction, monkey; type: in vitro ADME; conditions: monkey (cynomolgus)
Procedure: (§2) Blood plasma and S9 stability was studied as described previously ([8]). In brief, the compounds were incubated at 2 μM in hamster, rat, dog, monkey, or human plasma samples for up to 4 h at 37°C. For S9 stability, the compounds were incubated at 2 μM in hamster, rat, dog, monkey, or human intestinal and hepatic S9 fractions for up to 90 min at 37°C in the presence of NADPH and uridine 5′-diphosphoglucuronic acid trisodium salt (UDPGA) (Sigma-Adrich). The samples were analyzed by liquid chromatography coupled to triple-quadrupole mass spectrometry (LC-MS/MS).
(§3) The data (analyte-to-internal standard peak area ratio) were plotted on a semilog scale and fitted using an exponential fit. The half-life (t1/2) was determined assuming first-order kinetics.

[3] = test system: HCV GT1a, GT1b and GT2a replicons; experiment: HCV replicons GT1a, GT1b, GT2a in Huh-1C cells, summary across genotypes; type: cell-based, hepatitis C virus
Procedure: GT1a, GT1b, and GT2a are authentic subgenomic replicons of the indicated strain. Creation of these HCV replicons was reported previously ([7]).
RNA was transcribed in vitro using a MEGAscript […] kit (Ambion, Austin, TX) and transfected into Huh-Lunet and −1C cells using published methods ([21], [22]).
The EC50s, defined as the concentration at which there was a measured 50% decrease in HCV replicon level, were determined in replicon assay as previously described ([24]). Briefly, replicon cells were seeded into 96-well plates. Compounds were serially diluted in DMSO at 200× final concentrations and then added to the assay plate. Luciferase expression was quantified after 3 days of incubation using a commercial luciferase assay (Promega, Madison, WI). Data were analyzed using GraphPad Prism 6.0 (La Jolla, CA).
X represents log of compound concentration and Y represents replicon replication as the percentage of DMSO control. EC50s were calculated as an average from at least three independent experiments.

[4] = Metabolic stability in intestinal S9 fraction, rat; type: in vitro ADME
Procedure: as §2, §3

[5] = Metabolic stability in intestinal S9 fraction, dog; type: in vitro ADME
Procedure: as §2, §3

[6] = CES1, GS-6620-containing diastereomeric mixture was used

| SMILES | Amidate ester cleavage, specific activity (CES1; [6]) | CES1 hydrolysis more efficient than GS-6620 (CES1; isopropyl ester cleavage) | EC50 ([1]; Hepatitis C virus, read-out: potency) | relative potency to GS-6620 ([1]; chimeric replicons GT2b-GT6a, Huh-1C) | Amidate ester cleavage, specific activity (CatA) | CatA activity lower than toward GS-6620-containing diastereomeric mixture (CatA; isopropyl ester cleavage) | half-life at 2 μM [2] | potency relative to the fast-eluting isomer (more potent) ([3]; GT1a, 1b, 2a, Huh-1C) | activity relative to GS-6620, average across the three genotypes ([3]; Huh-1C cells) | half-life at 2 μM [4] | half-life at 2 μM [5] | 3′-Ester cleavage, specific activity (CES1; [6]) |
| --- | --- | --- | --- | --- | --- | --- | --- | --- | --- | --- | --- | --- |
| CC(C)OC(=O)C(C)(C)N[P@](=O)(OC[C@H]1O[C@@](C#N)(c2ccc3c(N)ncnn23)[C@](C)(O)[C@@H]1O)Oc1ccccc1 [GS2] | 91.0 pmol/min/µg | 48 fold | 91 to 158 nM | ≤ 2 fold | 385 pmol/min/µg | 11 fold | 3.83 h | approximately 4 fold | ≤ 3 fold | 2.83 h | 9.17 h | – |
| CC(C)OC(=O)[C@H](C)N[P@](=O)(OC[C@H]1O[C@@](C#N)(c2ccc3c(N)ncnn23)[C@](C)(O)[C@@H]1OC(=O)C(C)C)Oc1ccccc1 [GS-6620, reference compound] | 1.9 pmol/min/µg | – | – | – | 4,163 pmol/min · μg | – | 0.0933 h | – | – | 0.147 h | 0.55 h | 1.6 pmol/min/µg |
